One assay deals with T1, A. baumannii PBP1a (Acinetobacter baumannii, UniProt A0ABX6CK30).
T1 sequence (A0ABX6CK30 1-851): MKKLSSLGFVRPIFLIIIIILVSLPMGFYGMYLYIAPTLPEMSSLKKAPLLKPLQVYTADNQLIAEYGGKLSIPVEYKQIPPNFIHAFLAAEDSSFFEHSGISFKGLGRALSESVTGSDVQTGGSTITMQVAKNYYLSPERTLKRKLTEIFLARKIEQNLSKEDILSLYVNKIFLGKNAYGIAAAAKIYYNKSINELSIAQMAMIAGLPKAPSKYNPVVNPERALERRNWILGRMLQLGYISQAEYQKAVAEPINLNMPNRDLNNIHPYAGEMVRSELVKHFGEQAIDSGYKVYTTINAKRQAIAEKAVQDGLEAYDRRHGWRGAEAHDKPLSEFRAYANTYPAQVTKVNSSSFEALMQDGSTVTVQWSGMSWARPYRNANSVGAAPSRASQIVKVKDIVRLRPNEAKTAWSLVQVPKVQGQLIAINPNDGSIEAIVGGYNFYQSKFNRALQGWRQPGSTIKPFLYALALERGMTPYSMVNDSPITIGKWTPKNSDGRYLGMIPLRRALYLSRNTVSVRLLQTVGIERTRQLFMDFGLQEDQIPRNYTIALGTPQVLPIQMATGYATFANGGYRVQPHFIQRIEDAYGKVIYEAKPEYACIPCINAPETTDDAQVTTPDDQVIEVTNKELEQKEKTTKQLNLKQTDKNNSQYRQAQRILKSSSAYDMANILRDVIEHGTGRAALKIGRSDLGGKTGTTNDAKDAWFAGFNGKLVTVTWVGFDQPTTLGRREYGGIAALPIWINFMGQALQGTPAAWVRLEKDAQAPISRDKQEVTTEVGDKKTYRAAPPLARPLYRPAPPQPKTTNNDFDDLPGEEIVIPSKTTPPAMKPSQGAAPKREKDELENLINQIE
Description: Bocillin-FL competition binding via gel filtration, A. baumannii PBP1a. The settings on record: competition binding assay using Bocillin-FL via gel filtration; read-out: A. baumannii PBP1a Potency. Summed up: (§1)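 Competitive equilibrium binding; reporter Bocillin-FL. PBP + inhibitor (titration) pre-incubated → Bocillin-FL, 15 min → gel filtration → fluorescence. EC50 from Hill fit of fraction bound vs [inhibitor].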
Background: SEC sorts molecules by how far they enter the pores of the column.

In the next assay the test system is P. aeruginosa CDC-0090. The assay is described as follows: microbe, parasite or virus in culture. The assay is classed as cell-based. The settings on record: Pseudomonas aeruginosa, CDC0090, read-out: Minimum inhibitory concentration, P. aeruginosa CDC-0090.
In the next assay the target is A. baumannii PBP2 (Acinetobacter baumannii, UniProt D0C8Z9). Description: Bocillin-FL competition binding via gel filtration, A. baumannii PBP2. An outline of the steps: as §1
A. baumannii PBP2, sequence (D0C8Z9 whole entry): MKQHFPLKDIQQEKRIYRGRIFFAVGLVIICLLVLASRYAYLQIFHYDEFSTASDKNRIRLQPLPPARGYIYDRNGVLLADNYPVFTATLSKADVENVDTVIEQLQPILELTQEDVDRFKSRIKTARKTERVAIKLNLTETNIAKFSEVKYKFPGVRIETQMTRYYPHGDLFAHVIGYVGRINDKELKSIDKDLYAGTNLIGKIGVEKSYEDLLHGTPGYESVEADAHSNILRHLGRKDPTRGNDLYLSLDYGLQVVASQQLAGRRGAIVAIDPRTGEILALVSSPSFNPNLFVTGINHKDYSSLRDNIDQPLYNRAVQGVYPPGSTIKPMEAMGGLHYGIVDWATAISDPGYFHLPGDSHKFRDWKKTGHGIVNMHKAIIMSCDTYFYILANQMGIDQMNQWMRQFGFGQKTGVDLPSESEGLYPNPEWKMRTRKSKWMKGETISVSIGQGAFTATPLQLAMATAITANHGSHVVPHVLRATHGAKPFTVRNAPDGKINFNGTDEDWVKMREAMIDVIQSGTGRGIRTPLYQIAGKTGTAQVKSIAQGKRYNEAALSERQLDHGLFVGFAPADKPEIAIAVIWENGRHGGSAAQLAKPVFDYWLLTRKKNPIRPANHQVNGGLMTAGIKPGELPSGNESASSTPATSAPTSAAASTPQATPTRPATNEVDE

Results on 15 compounds are retold here after US20240270762A1, “PENICILLIN-BINDING PROTEIN INHIBITORS” (priority 2021, published 2024).

≈ marks a conversion by molar mass, not a printed value.

On to `O=C(NCCN1CCN(C(=O)NC(C(=O)N[C@H]2Cc3ccc(F)c(C(=O)O)c3OB2O)c2cc(F)c(O)c(O)c2Cl)C(=O)C1=O)c1ccccc1` (stereo partly drawn) [Example 207, (3R)-3-(2-(4-(2-benzamidoethyl)-2,3-dioxopiperazine-1-carboxamido)-2-(2-chloro-5-fluoro-3,4-dihydroxyphenyl)acetamido)-7-fluoro-2-hydroxy-3,4-dihydro-2H-benzo[e][1,2]oxaborinine-8-carboxylic acid], for which the EC50 on A. baumannii PBP1a is 10 to 50 µM. Moreover, in the assay with P. aeruginosa CDC-0090, the MIC was under 1 µg/mL.
In the same order, the values of `CN(CCN1CCN(C(=O)N[C@@H](C(=O)N[C@H]2Cc3ccc(F)c(C(=O)O)c3OB2O)c2cc(F)c(O)c(O)c2Cl)C(=O)C1=O)Cc1cccnc1` [Example 201, (R)-3-((R)-2-(2-chloro-5-fluoro-3,4-dihydroxyphenyl)-2-(4-(2-(methyl(pyridin-3-ylmethyl)amino)ethyl)-2,3-dioxopiperazine-1-carboxamido)acetamido)-7-fluoro-2-hydroxy-3,4-dihydro-2H-benzo[e][1,2]oxaborinine-8-carboxylic acid] are 10 to 50 µM and under 1 µg/mL.
`O=C(NCCCN1CCN(C(=O)N[C@@H](C(=O)N[C@H]2Cc3ccc(F)c(C(=O)O)c3OB2O)c2cc(F)c(O)c(O)c2Cl)C1=O)c1ccccc1` [Example 253, (R)-3-((R)-2-(3-(3-benzamidopropyl)-2-oxoimidazolidine-1-carboxamido)-2-(2-chloro-5-fluoro-3,4-dihydroxyphenyl)acetamido)-7-fluoro-2-hydroxy-3,4-dihydro-2H-benzo[e][1,2]oxaborinine-8-carboxylic acid]: the EC50 on A. baumannii PBP1a is 10 to 50 µM; at A. baumannii PBP2, under 10 µM. In addition, the MIC with P. aeruginosa CDC-0090 was in the range of 2 to 4 µg/mL (≈ 2.79 to 5.59 µM).
In the case of `O=C(NCCS(=O)(=O)N1CCN(C(=O)NC(C(=O)N[C@H]2Cc3ccc(F)c(C(=O)O)c3OB2O)c2cc(F)c(O)c(O)c2Cl)C1=O)Nc1cccc(O)c1` (stereo partly drawn) [Example 266, (3R)-3-(2-(2-chloro-5-fluoro-3,4-dihydroxyphenyl)-2-(3-((2-(3-(3-hydroxyphenyl)ureido)ethyl)sulfonyl)-2-oxoimidazolidine-1-carboxamido)acetamido)-7-fluoro-2-hydroxy-3,4-dihydro-2H-benzo[e][1,2]oxaborinine-8-carboxylic acid], the EC50 on A. baumannii PBP1a was under 10 µM; on A. baumannii PBP2, 10 to 50 µM. Besides, the MIC in the assay with P. aeruginosa CDC-0090 was in the range of 2 to 4 µg/mL (≈ 2.51 to 5.02 µM).
Taken in the same sequence, the figures for `O=C(NCCN1CCN(C(=O)NC(C(=O)N[C@H]2Cc3ccc(F)c(C(=O)O)c3OB2O)c2cc(F)c(O)c(O)c2Cl)C(=O)C1=O)Nc1ccc(O)cc1` (stereo partly drawn) [Example 219, (3R)-3-(2-(2-chloro-5-fluoro-3,4-dihydroxyphenyl)-2-(4-(2-(3-(4-hydroxyphenyl)ureido)ethyl)-2,3-dioxopiperazine-1-carboxamido)acetamido)-7-fluoro-2-hydroxy-3,4-dihydro-2H-benzo[e][1,2]oxaborinine-8-carboxylic acid] were under 10 µM, 10 to 50 µM and under 1 µg/mL.
Regarding `O=C(NCCCS(=O)(=O)N1CCN(C(=O)NC(C(=O)N[C@H]2Cc3ccc(F)c(C(=O)O)c3OB2O)c2cc(F)c(O)c(O)c2Cl)C1=O)c1ccncc1` (stereo partly drawn) [Example 272, (3R)-3-(2-(2-chloro-5-fluoro-3,4-dihydroxyphenyl)-2-(3-((3-(isonicotinamido)propyl)sulfonyl)-2-oxoimidazolidine-1-carboxamido)acetamido)-7-fluoro-2-hydroxy-3,4-dihydro-2H-benzo[e][1,2]oxaborinine-8-carboxylic acid], the EC50 at A. baumannii PBP1a was 10 to 50 µM. Moreover, the MIC with P. aeruginosa CDC-0090 was in the range of 2 to 4 µg/mL (≈ 2.56 to 5.12 µM).
On to `O=C(CN1CCN(C(=O)NC(C(=O)N[C@H]2Cc3ccc(F)c(C(=O)O)c3OB2O)c2cc(F)c(O)c(O)c2Cl)C(=O)C1=O)Nc1ccc(O)cc1` (stereo partly drawn) [Example 230, (3R)-3-(2-(2-chloro-5-fluoro-3,4-dihydroxyphenyl)-2-(4-(2-((4-hydroxyphenyl)amino)-2-oxoethyl)-2,3-dioxopiperazine-1-carboxamido)acetamido)-7-fluoro-2-hydroxy-3,4-dihydro-2H-benzo[e][1,2]oxaborinine-8-carboxylic acid], for which the EC50 on A. baumannii PBP1a was 10 to 50 µM. Further, the MIC in the assay on P. aeruginosa CDC-0090 lay within 2 to 4 µg/mL (≈ 2.73 to 5.47 µM).
In the same order, the values of `O=C(NCCCS(=O)(=O)N1CCN(C(=O)NC(C(=O)N[C@H]2Cc3ccc(F)c(C(=O)O)c3OB2O)c2cc(F)c(O)c(O)c2Cl)C1=O)Nc1ccc(O)cc1` (stereo partly drawn) [Example 276, (3R)-3-(2-(2-chloro-5-fluoro-3,4-dihydroxyphenyl)-2-(3-((3-(3-(4-hydroxyphenyl)ureido)propyl)sulfonyl)-2-oxoimidazolidine-1-carboxamido)acetamido)-7-fluoro-2-hydroxy-3,4-dihydro-2H-benzo[e][1,2]oxaborinine-8-carboxylic acid] are under 10 µM and under 1 µg/mL.
In the case of `O=C(NCCN1CCN(C(=O)NC(C(=O)N[C@H]2Cc3ccc(F)c(C(=O)O)c3OB2O)c2cc(F)c(O)c(O)c2Cl)C1=O)c1cccc(O)c1` (stereo partly drawn) [Example 244, (3R)-3-(2-(2-chloro-5-fluoro-3,4-dihydroxyphenyl)-2-(3-(2-(3-hydroxybenzamido)ethyl)-2-oxoimidazolidine-1-carboxamido)acetamido)-7-fluoro-2-hydroxy-3,4-dihydro-2H-benzo[e][1,2]oxaborinine-8-carboxylic acid], the EC50 on A. baumannii PBP1a is 10 to 50 µM. Also, the MIC in the assay with P. aeruginosa CDC-0090 is under 1 µg/mL.
At A. baumannii PBP2, `O=C(NCCCS(=O)(=O)N1CCN(C(=O)NC(C(=O)N[C@H]2Cc3ccc(F)c(C(=O)O)c3OB2O)c2cc(F)c(O)c(O)c2Cl)C1=O)c1cccnc1` (stereo partly drawn) [Example 273, (3R)-3-(2-(2-chloro-5-fluoro-3,4-dihydroxyphenyl)-2-(3-((3-(nicotinamido)propyl)sulfonyl)-2-oxoimidazolidine-1-carboxamido)acetamido)-7-fluoro-2-hydroxy-3,4-dihydro-2H-benzo[e][1,2]oxaborinine-8-carboxylic acid] yielded an EC50 of 10 to 50 µM. In addition, the MIC in the assay on P. aeruginosa CDC-0090 is under 1 µg/mL.
In turn, `O=C(NCCS(=O)(=O)N1CCN(C(=O)NC(C(=O)N[C@H]2Cc3ccc(F)c(C(=O)O)c3OB2O)c2cc(F)c(O)c(O)c2Cl)C1=O)c1ccccc1` (stereo partly drawn) [Example 260, (3R)-3-(2-(3-((2-benzamidoethyl)sulfonyl)-2-oxoimidazolidine-1-carboxamido)-2-(2-chloro-5-fluoro-3,4-dihydroxyphenyl)acetamido)-7-fluoro-2-hydroxy-3,4-dihydro-2H-benzo[e][1,2]oxaborinine-8-carboxylic acid] yielded an EC50 at A. baumannii PBP2 of 10 to 50 µM. Besides, in the assay with P. aeruginosa CDC-0090, the MIC fell in the range of 2 to 4 µg/mL (≈ 2.61 to 5.22 µM).
With `O=C(NCCN1CCN(C(=O)NC(C(=O)N[C@H]2Cc3ccc(F)c(C(=O)O)c3OB2O)c2cc(F)c(O)c(O)c2Cl)C1=O)c1ccc(O)cc1` (stereo partly drawn) [Example 243, (3R)-3-(2-(2-chloro-5-fluoro-3,4-dihydroxyphenyl)-2-(3-(2-(4-hydroxybenzamido)ethyl)-2-oxoimidazolidine-1-carboxamido)acetamido)-7-fluoro-2-hydroxy-3,4-dihydro-2H-benzo[e][1,2]oxaborinine-8-carboxylic acid], the EC50 on A. baumannii PBP1a fell in the range of 10 to 50 µM. The MIC with P. aeruginosa CDC-0090 was under 1 µg/mL.
In the case of `O=C(NCCCS(=O)(=O)N1CCN(C(=O)NC(C(=O)N[C@H]2Cc3ccc(F)c(C(=O)O)c3OB2O)c2cc(F)c(O)c(O)c2Cl)C1=O)c1nccs1` (stereo partly drawn) [Example 274, (3R)-3-(2-(2-chloro-5-fluoro-3,4-dihydroxyphenyl)-2-(2-oxo-3-((3-(thiazole-2-carboxamido)propyl)sulfonyl)imidazolidine-1-carboxamido)acetamido)-7-fluoro-2-hydroxy-3,4-dihydro-2H-benzo[e][1,2]oxaborinine-8-carboxylic acid], the EC50 at A. baumannii PBP1a is under 10 µM. For the same compound, the MIC in the assay on P. aeruginosa CDC-0090 is 2 to 4 µg/mL (≈ 2.54 to 5.08 µM).
Turning to `O=C(CN1CCN(C(=O)NC(C(=O)N[C@H]2Cc3ccc(F)c(C(=O)O)c3OB2O)c2cc(F)c(O)c(O)c2Cl)C(=O)C1=O)NCc1cccnc1` (stereo partly drawn) [Example 240, (3R)-3-(2-(2-chloro-5-fluoro-3,4-dihydroxyphenyl)-2-(2,3-dioxo-4-(2-oxo-2-((pyridin-3-ylmethyl)amino)ethyl)piperazine-1-carboxamido)acetamido)-7-fluoro-2-hydroxy-3,4-dihydro-2H-benzo[e][1,2]oxaborinine-8-carboxylic acid], the MIC with P. aeruginosa CDC-0090 is 2 to 4 µg/mL (≈ 2.74 to 5.47 µM).
On the same count and under the same terms, then `O=C(NCCN1CCN(C(=O)NC(C(=O)N[C@H]2Cc3ccc(F)c(C(=O)O)c3OB2O)c2cc(F)c(O)c(O)c2Cl)C(=O)C1=O)c1nccs1` (stereo partly drawn) [Example 218, (3R)-3-(2-(2-chloro-5-fluoro-3,4-dihydroxyphenyl)-2-(2,3-dioxo-4-(2-(thiazole-2-carboxamido)ethyl)piperazine-1-carboxamido)acetamido)-7-fluoro-2-hydroxy-3,4-dihydro-2H-benzo[e][1,2]oxaborinine-8-carboxylic acid], with under 1 µg/mL.
